Substitutions are numbered along the chain they refer to. pIC50, pKi: −log10 of the molar value.
How the values were obtained:
Assay type in all cases: biochemical
[1] = molecular target: T1, pig kidney FBPase K112A (Sus scrofa, UniProt P00636, K113A); assay: Malachite Green kinetic assay, K112A mutant; conditions: for pIC50: FBP substrate 10 to 50 µM
T1 construct: His6 (C); made in house; host or cells: Escherichia coli BL21 (DE3)
T1 sequence (P00636 1-338 K113A): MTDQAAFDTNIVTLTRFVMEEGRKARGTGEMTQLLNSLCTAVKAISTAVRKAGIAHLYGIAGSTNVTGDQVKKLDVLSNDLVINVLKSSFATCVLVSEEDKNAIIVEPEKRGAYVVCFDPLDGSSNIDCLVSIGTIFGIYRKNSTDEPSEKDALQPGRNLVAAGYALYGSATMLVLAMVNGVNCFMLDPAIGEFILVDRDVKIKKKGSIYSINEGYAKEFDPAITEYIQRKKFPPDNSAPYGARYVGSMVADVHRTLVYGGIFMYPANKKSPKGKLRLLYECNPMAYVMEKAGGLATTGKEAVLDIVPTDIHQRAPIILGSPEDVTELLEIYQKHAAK
Experimental: (§1) For the kinetic assay, a standard curve was obtained from an ammonium molybdate Malachite Green inorganic phosphate assay (OD660 nm). The purified FBPase protein was dialyzed ×3 in 50 mM Tris buffer at pH 7.5 at 4°C. For enzyme concentration, absorbency values were recorded for all five mutant proteins using spectrophotometer readings at OD280 nm. To quantitate enzyme concentration, the enzymes were calculated based on the quantity of micrograms per microliter (µg/µl) present. Final concentration of WT and mutant enzymes was between 2.5 and 5.0 µg/µl. Using a colorimetric assay as described below, specific activity (SA) was determined. At last, all kinetic and binding assays described below were performed in 50 mM Tris pH 7.5.
(§2) Kinetic assays were performed for WT and mutant enzymes to identify functional differences between the WT enzyme and the mutants. […] Readings recorded at OD660 nm for each enzyme were applied to the standard curve equation. Micromoles of inorganic phosphate were calculated to determine the SA of mutant enzymes.
(§3) For each clone, the kinetic assay was performed in duplicates of triplicates. Malachite Geen was used to detect inorganic phosphate. Two separate clones were processed independently of the same mutant. All kinetic data were fit to symmetric sigmoidal curve using Origin software based on methods previously described [[27–29]]. More specifically, for kinetic parameters established via curve fitting (shown in Tables 1–3; and in Figure 5A,B), the equation y = d + (a − d)/1 + (x/c)^b was used where ‘x’ is represented by apparent Michelis constant (Km) when y = Vmax. […] P-values were significant at <0.001 and represent a comparison with the WT enzyme.

[2] = molecular target: T2, pig kidney FBPase Y164A (Sus scrofa, UniProt P00636, Y165A); assay: Malachite Green kinetic assay, Y164A mutant; conditions: enzyme Y164A; for pIC50: FBP substrate 10 to 50 µM
T2 construct: His6 (C); made in house; host or cells: Escherichia coli BL21 (DE3)
T2 sequence (P00636 1-338 Y165A): T1 sequence (P00636 1-338 K113A) with A113K, Y165A
Experimental: as §1, §2, §3

[3] = molecular target: T3, pig kidney FBPase M248D (Sus scrofa, UniProt P00636, M249D); assay: Malachite Green kinetic assay, M248D mutant; conditions: for pIC50: FBP substrate 10 to 50 µM
T3 construct: His6 (C); made in house; host or cells: Escherichia coli BL21 (DE3)
T3 sequence (P00636 1-338 M249D): T1 sequence (P00636 1-338 K113A) with A113K, M249D
Experimental: as §1, §2, §3

[4] = molecular target: T4, pig kidney FBPase L56A (Sus scrofa, UniProt P00636, L57A); assay: Malachite Green kinetic assay, L56A mutant; conditions: enzyme L56A; for pIC50: FBP substrate 10 to 50 µM
T4 construct: His6 (C); made in house; host or cells: Escherichia coli BL21 (DE3)
T4 sequence (P00636 1-338 L57A): T1 sequence (P00636 1-338 K113A) with L57A, A113K
Experimental: as §1, §2, §3

[5] = molecular target: T5, pig kidney FBPase M177A (Sus scrofa, UniProt P00636, M178A); assay: Malachite Green kinetic assay, M177A mutant; conditions: for pIC50: FBP substrate 10 to 50 µM
T5 construct: His6 (C); made in house; host or cells: Escherichia coli BL21 (DE3)
T5 sequence (P00636 1-338 M178A): T1 sequence (P00636 1-338 K113A) with A113K, M178A
Experimental: as §1, §2, §3

[6] = association (binding) constant from saturation curve

[Mg+2] [Mg^2+, magnesium]
Ka ([1]; enzyme K112A, association (binding) constant from saturation curve): 0.51 (± 0.15) mM
Hill coefficient ([1]; enzyme K112A, for magnesium): 1.98 (± 0.15)
Ka [2, 6]: 0.50 (± 0.15) mM
Hill coefficient ([2]; for magnesium): 2.15 (± 0.12)
decrease in Ka for magnesium binding ([3]; enzyme M248D vs WT): 6.25
Ka ([3]; enzyme M248D, association (binding) constant from saturation curve): 0.08 (± 0.02) mM
Hill coefficient ([3]; enzyme M248D, for magnesium): 2.20 (± 0.17)
Ka [4, 6]: 0.52(± 0.13) mM
Hill coefficient ([4]; for magnesium): 2.75 (± 0.16)
Ka ([5]; enzyme M177A, association (binding) constant from saturation curve): 0.49 (± 0.18) mM
Hill coefficient ([5]; enzyme M177A, for magnesium): 2.05 (± 0.12)

O=P(O)(O)OC[C@H]1O[C@@](CO)(OP(=O)(O)O)[C@@H](O)[C@@H]1O [F2,6-BP, fructose-2,6-bisphosphate]
pKi ([1]; enzyme K112A): 6.62
pIC50 ([1]; enzyme K112A_1): 5.82
pIC50 ([1]; enzyme K112A_2): 5.82
pKi [2]: 6.82
pIC50 [2]: 6.02
pKi ([3]; enzyme M248D): 5.82
pIC50 ([3]; enzyme M248D): 4.98
pKi [4]: 5.90
pIC50 [4]: 5.12
pKi ([5]; enzyme M177A): 6.77
pIC50 ([5]; enzyme M177A_1): 6.12
pIC50 ([5]; enzyme M177A_2): 6.21

Nc1ncnc2c1ncn2[C@@H]1O[C@H](COP(=O)(O)O)[C@@H](O)[C@H]1O [AMP]
pIC50 ([1]; enzyme K112A_1): 4.16
pIC50 ([1]; enzyme K112A_2): 4.28
AMP Hill coefficient [2]: 2.8 (± 0.2)
pIC50 [2]: 5.60
AMP Hill coefficient ([3]; enzyme M248D): 2.5 (± 0.2)
pIC50 ([3]; enzyme M248D): 5.14
AMP Hill coefficient [4]: 2.3 (± 0.2)
pIC50 [4]: 5.13
AMP Hill coefficient ([5]; enzyme M177A_1): 2.6 (± 0.2)
pIC50 ([5]; enzyme M177A_1): 5.46
AMP Hill coefficient ([5]; enzyme M177A_2 (second clone)): 2.8 (± 0.1)
pIC50 ([5]; enzyme M177A_2): 5.41

— PMC6386767, “Characterization of recombinant fructose-1,6-bisphosphatase gene mutations: evidence of inhibition/activation of FBPase protein by gene mutation” (Bioscience Reports, 2019)
